Consider one molecule from patent US11918550B2, “Sensitization of cancer cells to differentiation therapy with mitochondrial uncoupler niclosamide ethanolamine” (The Board of Trustees of the Leland Stanford Junior …, priority 2020, dated 2024).

Assay [1] concerns NB16 cells. As to the kind of experiment: Western blot of β-catenin and p53. The format is cell-based. The settings on record: NB16, 1 μM NEN 24 and 48 hrs. The protocol:
(§1) Protein extraction and immunoblot. Cells were washed with ice-cold PBS buffer (Invitrogen, 20012050) and lysed with harvest buffer (10 mM Hepes pH 7.9, 50 mM NaCl, 500 mM sucrose, 0.1 mM EDTA and 0.5% Trition X-100) supplemented with 1% Halt inhibitors (Thermo Scientific™, 78443) for 10 minutes. Cell lysate was centrifuged at 3000 rpm for 3 min at 4° C. The supernatant containing cytosolic proteins was transferred to a different tube. The pellet containing nuclear proteins was dissolved with nuclear lysis buffer (10 mM Hepes pH 7.9, 0.5M NaCl, 0.1 mM EDTA, 0.1 mM EGTA and 0.1% NP40) supplemented with 1% Halt inhibitors (Thermo Scientific™, 78443) for 5 minutes at 4° C. Then the solution was sonicated at 4° C. for 6 cycles (1 cycle=30 s sonication and 30 s cooldown with “High” energy intensity) using a Bioruptor® Plus sonication (Diagenode, UCD-300). After sonication, the solution was centrifuged at 15,000 rpm for 10 minutes. The supernatant was kept as nuclear extraction. Protein concentration was determined by BCA assay (Thermo Scientific, 23227). 5 μg nuclear proteins or 7.5 μg cytosolic proteins were boiled in loading buffer with reducing reagents (Invitrogen, NuPAGE™ LDS Sample Buffer (4X), NP0007), then separated with SDS-PAGE (Nupage™ 4-12% Bis-Tris Protein Gels, 1.0 mm, Invitrogen™, NP0322BOX). Protein was transferred onto a nitrocellulose membrane (Thermo Scientific™, 88018). After blocking in 5% non-fat milk for 30 minutes at room temperature (RT), the primary antibody was added for incubation overnight at 4° C. After washing with TBST (CST, #9997, 1:10 diluted by deionized water) for 3 times, HRP-conjugated secondary antibodies were applied. Signals were detected with an ECL kit (Thermo Scientific™, 34577) by using BioRad Universal Hood II.
(Immunoblotting shows a protein as a band on a membrane.)

In assay [2] the test system is SK-N-BE(2) cells. As to the kind of experiment: Western blot of β-catenin and p53. The format is cell-based. The settings on record: 1 μM NEN 24 and 48 hrs. The protocol: as §1
The subject of assay [3] is NB16 cells. Description: Neurite outgrowth and β-tubulin III immunofluorescence (neuron differentiation). Conditions: 72-96 h. Type of assay: cell-based. The protocol: (§2) Neurite outgrowth assay. The quantification of neurite was performed as described before. Shortly, 1×10^4 SK-N-BE(2) and NB16 cells were plated in a 12 well-plate per well. After overnight incubation, cells were treated with various conditions as indicated for 72 h. Then, images were taken by a Leica Florescent Microscope DMi8 in phase contrast mode (20× magnification). The lengths of the neurites were traced and quantified using the ImageJ plugin NeuronJ. For each sample, total neurite length was measured and normalized to the number of cell bodies, mean value from 3 biological replicates was reported. Immunofluorescence staining. SK-N-BE(2) and NB16 cells were seeded into 8-chamber slides (Thermo Fisher Scientific, 154534) with a density of 6×10^3 cells/well overnight and treated with indicated treatment for 72 h. Cells were fixed with 4% PFA in PBS with 0.1% Tween-20 at RT for 30 minutes followed by permeabilization with 0.1% Triton X-100 in PBS at room temperature for 10 min. The cells were washed with PBS twice and blocked with 2.5% horse serum in PBS at RT for 1 h. Then, cells were subjected to immunofluorescence staining with primary antibody at 4° C. overnight. After two washes with PBS, cells were incubated with Alexa Fluor 594-conjugated anti-rabbit secondary antibody (Life Technologies) at RT for 1 h followed by staining with DAPI (Vector Laboratories, H-1800-2). Images were acquired with Leica DMi8 microscope.

The test system of assay [4] is SK-N-BE(2) cells. Described as above. Type of assay: cell-based. The settings on record: 72-96 h. On the procedure:
as §2

Assay [5] has as its system HIF target genes such as pdk1, pdk3, pgk1 and Idha. Description: RT-PCR of HIF target genes. The format is cell-based. Conditions: SK-N-BE(2), 2 or 4 μM NEN, normoxia or hypoxia. The protocol:
RNA isolation, reverse transcription, and real-time PCR. The procedure was performed as described before. Briefly, total RNA was isolated from 60 mm tissue culture plates according to the TRIzol Reagent (Invitrogen, 15596026) protocol. 3 μg of total RNA was used in the reverse transcription reaction using the iScript cDNA synthesis kit (Bio-Rad). Quantitative PCR amplification was performed on the Prism 7900 Sequence Detection System (Applied Biosystems) using Taqman Gene Expression Assays (Applied Biosystems). Gene expression level were normalized to 18S rRNA.

For assay [6], the system named is orthotopic neuroblastoma xenograft (SK-N-BE(2) cells). As to the kind of experiment: H&E histology and immunohistochemistry of orthotopic tumors. The format is in vivo, mice. Conditions: diet 2000 ppm NEN vs control.
Assay [7] concerns RA-resistant neuroblastoma cells. Description: Clonogenic assay. Type of assay: cell-based. The settings on record: 1 μM NEN with 1 μM RA, two weeks. The protocol: For the clonogenic assay, 500 cells were plated in 60 mm dishes. After 24 h, cells were treated with indicated conditions. After 14 days, the cells were fixed by 50% methanol in PBS for 15 minutes and stained by crystal violet staining solution (0.5% crystal violet and 25% methanol in PBS). The quantification was done by using countPHICS.

Consider `O=C(Nc1ccc([N+](=O)[O-])cc1Cl)c1cc(Cl)ccc1O` [NEN, 5-chloro-N-(2-chloro-4-nitrophenyl)-2-hydroxybenzamide compound with 2-aminoethanol (1:1)], for which, in the assay on NB16 cells [1], the “expression of p53” value is on record as “increased” and the “expression of β-catenin (nuclear protein)” value was “reduced”. Besides, in the assay on SK-N-BE(2) cells [2], the “expression of p53” value is “increased” and the “expression of β-catenin (nuclear protein)” value is recorded as “reduced”. Further, in the assay on NB16 cells [3] (NB16, 1 μM NEN + 1 μM 13-cis-RA), the “neuron differentiation morphology, NEN combined with RA vs NEN alone” value is given as “more profound”. Besides, in the assay on NB16 cells [3] (NB16, 1 μM NEN alone), the “neuron differentiation morphology (neurite length, β-tubulin III staining)” value is given as “induced”. Also, the “neuron differentiation morphology, NEN combined with RA vs NEN alone” value in the assay with SK-N-BE(2) cells [4] (1 μM NEN + 1 μM 13-cis-RA) is “more profound”. Further, the “neuron differentiation morphology (neurite length, β-tubulin III staining)” value with SK-N-BE(2) cells [4] (1 μM NEN alone) was “induced”. In addition, in assay [5], the “expression of HIF target genes such as pdk1, pdk3, pgk1 and Idha” value is “reduced”. Besides, in assay [6], the “N-Myc protein expression in xenografts (IHC)” value was “significantly reduced”, the “enlarged prominent nucleoli in tumor cells (H&E)” value is recorded as “much fewer” and the “β-catenin protein expression in xenografts (IHC)” value is “significantly reduced”. Moreover, in assay [7], the “inhibition of clonogenicity, NEN with RA” value is “strong synergistic effect”.
